Assay results taken from the NIST ThermoML archive (doi:10.1016/j.tca.2008.06.010).
Values joined by “and” are separate entries in the source; they are usually repeats but may differ in a detail not shown here. Equal entries are not always repeated.

Key:
[1] = 293 K; 101.33 kPa; Crystal; X-ray diffraction
[2] = molar heat capacity at constant pressure; settings: 101.33 kPa, Crystal

[Nb+5].[Nb+5].[O-2].[O-2].[O-2].[O-2].[O-2].[O-2].[O-2].[Sr+2].[Sr+2] [niobium strontium oxide (Nb2Sr2O7)]
Settings | mass density [kg/m3]
[1] | 5206

molar heat capacity at constant pressure, [2]
Settings | Relaxation time | Small sample (50 mg) DSC
2 K | 0.006 J/K/mol | –
2.1 K | 0.005 J/K/mol | –
2.2 K | 0.006 J/K/mol | –
2.4 K | 0.007 J/K/mol | –
2.5 K | 0.008 J/K/mol | –
2.7 K | 0.009 J/K/mol | –
2.9 K | 0.01 J/K/mol | –
3.1 K | 0.012 J/K/mol | –
3.2 K | 0.015 J/K/mol | –
3.5 K | 0.017 J/K/mol | –
3.7 K | 0.02 J/K/mol | –
3.9 K | 0.024 J/K/mol | –
4.2 K | 0.03 J/K/mol | –
4.4 K | 0.035 J/K/mol | –
4.7 K | 0.043 J/K/mol | –
5 K | 0.053 J/K/mol | –
5.4 K | 0.064 J/K/mol | –
5.7 K | 0.079 J/K/mol | –
6.1 K | 0.097 J/K/mol | –
6.5 K | 0.12 J/K/mol | –
6.9 K | 0.15 J/K/mol | –
7.4 K | 0.19 J/K/mol | –
7.9 K | 0.23 J/K/mol | –
8.4 K | 0.28 J/K/mol | –
8.9 K | 0.35 J/K/mol | –
9.5 K | 0.43 J/K/mol | –
10.1 K | 0.53 J/K/mol | –
10.8 K | 0.65 J/K/mol | –
11.5 K | 0.8 J/K/mol | –
12.2 K | 0.99 J/K/mol | –
13 K | 1.21 J/K/mol | –
13.9 K | 1.48 J/K/mol | –
14.8 K | 1.82 J/K/mol | –
15.7 K | 2.2 J/K/mol | –
16.7 K | 2.69 J/K/mol | –
17.8 K | 3.28 J/K/mol | –
19 K | 3.97 J/K/mol | –
20.2 K | 4.78 J/K/mol | –
21.5 K | 5.72 J/K/mol | –
22.9 K | 6.83 J/K/mol | –
24.3 K | 8.09 J/K/mol | –
25.9 K | 9.56 J/K/mol | –
27.6 K | 11.22 J/K/mol | –
29.3 K | 13.09 J/K/mol | –
31.2 K | 15.16 J/K/mol | –
33.3 K | 17.47 J/K/mol | –
35.4 K | 20.05 J/K/mol | –
37.7 K | 22.84 J/K/mol | –
40.2 K | 25.86 J/K/mol | –
42.7 K | 29.26 J/K/mol | –
45.5 K | 32.91 J/K/mol | –
48.4 K | 36.66 J/K/mol | –
51.6 K | 40.57 J/K/mol | –
54.9 K | 44.95 J/K/mol | –
58.4 K | 49.55 J/K/mol | –
62.2 K | 54.39 J/K/mol | –
66.2 K | 59.43 J/K/mol | –
70.4 K | 64.72 J/K/mol | –
75 K | 70.3 J/K/mol | –
79.8 K | 76.11 J/K/mol | –
84.9 K | 82.05 J/K/mol | –
90.4 K | 88.37 J/K/mol | –
96.2 K | 95.08 J/K/mol | –
102.4 K | 101.57 J/K/mol | –
115.9 K | 115.3 J/K/mol | –
123.4 K | 122.51 J/K/mol | –
131.3 K | 129.76 J/K/mol | –
139.7 K | 137.01 J/K/mol | –
148.6 K | 144.41 J/K/mol | –
158.2 K | 152.04 J/K/mol | –
168.3 K | 158.82 J/K/mol | –
179 K | 166.7 J/K/mol | –
190.5 K | 173.8 J/K/mol | –
201.5 K | 179.2 J/K/mol | –
203 K | 180.19 J/K/mol | –
203.6 K | 180.24 J/K/mol | –
205.7 K | 181.22 J/K/mol | –
207.7 K | 181.67 J/K/mol | –
209.7 K | 183.21 J/K/mol | –
211.7 K | 184.53 J/K/mol | –
213.8 K | 185.64 J/K/mol | –
215.8 K | 187.13 J/K/mol | –
217.8 K | 188.51 J/K/mol | –
219.8 K | 190.01 J/K/mol | –
221.8 K | 191.02 J/K/mol | –
223.8 K | 191.53 J/K/mol | –
225.9 K | 192.06 J/K/mol | –
227.9 K | 193.45 J/K/mol | –
229.9 K | 193.04 J/K/mol | –
231.9 K | 193.63 J/K/mol | –
233.9 K | 194.26 J/K/mol | –
235.9 K | 196.53 J/K/mol | –
238 K | 196.42 J/K/mol | –
240 K | 197.53 J/K/mol | –
242 K | 197.69 J/K/mol | –
244 K | 197.75 J/K/mol | –
246.1 K | 198.29 J/K/mol | –
248.1 K | 200 J/K/mol | –
250.1 K | 200.61 J/K/mol | –
252.1 K | 201.6 J/K/mol | –
254.1 K | 202.35 J/K/mol | –
256.1 K | 203.13 J/K/mol | –
258.1 K | 203.04 J/K/mol | 201.78 J/K/mol and 201.57 J/K/mol
260.2 K | 205.33 J/K/mol | –
262.2 K | 206.4 J/K/mol | –
264.2 K | 207.59 J/K/mol | –
266.2 K | 208.79 J/K/mol | –
268.2 K | 209.43 J/K/mol | –
268.3 K | – | 206.1 J/K/mol and 204.8 J/K/mol
270.2 K | 210.44 J/K/mol | –
272.2 K | 211.82 J/K/mol | –
274.3 K | 212.04 J/K/mol | –
276.3 K | 212.05 J/K/mol | –
278.3 K | 212.41 J/K/mol | –
278.5 K | – | 208.78 J/K/mol and 208.32 J/K/mol
280.3 K | 212.81 J/K/mol | –
282.3 K | 212.94 J/K/mol | –
284.3 K | 213.33 J/K/mol | –
286.3 K | 213.1 J/K/mol | –
288.3 K | 213.9 J/K/mol | –
288.7 K | – | 211.87 J/K/mol and 212.56 J/K/mol
290.4 K | 214.19 J/K/mol | –
292.4 K | 214.81 J/K/mol | –
294.4 K | 215.93 J/K/mol | –
296.4 K | 216.6 J/K/mol | –
298.4 K | 219.18 J/K/mol | –
298.9 K | – | 216.24 J/K/mol [middle of 10 runs]
300.4 K | 218.65 J/K/mol | –
309.1 K | – | 220.12 J/K/mol [middle of 11 runs]
319.4 K | – | 223.23 J/K/mol [middle of 9 runs]
329.6 K | – | 225.99 J/K/mol [middle of 11 runs]
339.8 K | – | 228.99 J/K/mol [middle of 10 runs]
350 K | – | 230.93 J/K/mol [middle of 11 runs]
